This note sets out measurements from PubChem BioAssay AID179 (DTP/NCI, 2004).

The test system of the experiment is CEM cells HIV-1 protection, formazan growth assay. The experiment can be described thus: NCI AIDS Antiviral Assay. To be noted: for IC50: measured here: growth of uninfected CEM cells. The method in brief: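 Screen of anti-HIV-1 activity in human CEM cells using a formazan-based growth measurement at five drug concentrations. Hits with 50% or greater protection were repeated, and confirmation required reproducible complete protection.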

“And” between values parts separate entries of the source, which are not always exact repeats. Equal values may be shown once. The source made the active and inactive calls.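 The calls were made as follows: active = compounds giving half or more protection of infected cells from virus-caused growth loss, again on retest; inactive = the rest.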 Where a SMILES comes first, the peptide text is derived from it. Some results are limits rather than exact numbers.

Regarding `[CH3][Sn]1([CH3])[O]C(=O)CCN=Cc2c(ccc3ccccc23)[O][Sn]([CH3])([CH3])[O]C(=O)CCN=Cc2c(ccc3ccccc23)[O]1`, the EC50 (in general, the midpoint of the concentration-response curve) was above 200 µM and the IC50 (usually the concentration that gives 50% inhibition) is 20 µM. On to `CC(N)(CC(O)(C(F)(F)Cl)C(F)(F)Cl)C(=O)O` (configuration not stated), for which the EC50 was above 200 µM and the IC50 was above 200 µM. Turning to `N#CC(C#N)=CN1CCNC1=S`, the EC50 was above 200 µM and the IC50 was above 200 µM. For the compound `CC(=O)OCC12CCC(C)=CC1OC1C3(O)N=C(C)OC3C2(C)C12CO2` (configuration not stated), the EC50 is above 200 µM and the IC50 stood at 0.0661 µM. Take `O=[N+]([O-])c1ccc2nc(/C=C(\O)c3ccccc3)c(/C=C(\O)c3ccc(Cl)cc3)nc2c1`: the EC50 was above 100 µM and the IC50 came out at 11 µM.

On to `Cc1cn(CCCCCCOC(=O)NC(CCCN=C(N)N)C(=O)O)c(=O)[nH]c1=O` (configuration not stated), for which the EC50 was above 200 µM and the IC50 is above 200 µM. With `CC(C)(C)OC(=O)NCCc1ccc(N)cc1`, the EC50 is above 200 µM and the IC50 was 158 µM. With `Cc1[nH]c(=O)nc2[nH][nH]c(=O)c12`, the outcome was inactive. Consider `O=C(O)c1cc(C(c2ccc(O)c(C(=O)O)c2)c2ccc(O)c(C(=O)O)c2)ccc1O`, for which the EC50 is above 151 µM and the IC50 was 28.8 µM. In the same order, the values of `NCC(=O)NC1OC(COP(=O)(O)O)C(O)C1O` (configuration not stated) are above 200 µM and above 200 µM.

Regarding `Nc1ccc(N=Nc2ccc(-c3ccc(N=Nc4c(S(=O)(=O)O)cc5cc(S(=O)(=O)O)c(N=Nc6ccccc6)c(O)c5c4N)cc3)cc2)c2ccc(S(=O)(=O)O)cc12`, the outcome was inactive.

As to `CC(C)=CCc1ccc2[nH]c3c(c2c1)C(=O)C(=O)C(C)=C3C(O)C(C)O` (configuration not stated), the EC50 is above 200 µM and the IC50 was 1.95 µM. For the compound `CCOC(=O)C(=CCC1NCCc2c1[nH]c1ccccc21)C(=O)OCC` (configuration not stated), the EC50 is above 20.4 µM and the IC50 is 12 µM. With `Cc1ccccc1NC(=O)c1cc(-c2ccc([N+](=O)[O-])cc2)nc(=S)[nH]1`, the EC50 was above 490 µM and the IC50 was above 490 µM. Consider `c1ccc(CN2CCC3(N4CCOCC4)C(C2)N=NN3c2ccccc2)cc1` (configuration not stated), for which the EC50 was above 200 µM and the IC50 was determined as 110 µM.

Regarding `CC(NC(=O)CNC(=O)C(N)CO)C(=O)NC(CCC(N)=O)C(=O)NC(CCC(=O)O)C(=O)NC(C)C(=O)NC(CCC(=O)O)C(=O)NC(CCCCN)C(=O)NC(CCC(N)=O)C(=O)NC(CCCN=C(N)N)C(=O)NC(C(=O)NC(CC(N)=O)C(=O)NC(C)C(=O)NC(Cc1cnc[nH]1)C(=O)NC(CO)C(=O)O)C(C)O` (configuration not stated) (H-SGAQEAEKQRTNAHS-OH; configuration not given here), the EC50 is above 100 µM and the IC50 was above 100 µM. For the compound `COC(=O)C1=C(C)NC2(C)SC1C(C)C2C(=O)OC` (configuration not stated), the EC50 is above 871 µM and the IC50 is 490 µM. For the compound `OCC1C2C=CC(O2)[C@H]1CO` (some centres not stated), the result was inactive. As for `COC(=O)[C@]1(C)CCC[C@]2(C)[C@H]3CC4OO[C@@]3(CC[C@H]21)[C@H]1O[C@@]41C(C)C`, the outcome was inactive. Regarding `OC1C[C@H](c2ccccc2)C2(C(O)c3ccccc3C2O)[C@@H](c2ccccc2)C1` (some centres not stated), the EC50 is above 200 µM and the IC50 was determined as 89.1 µM.

Turning to `CN(C)CCN1N=Nc2cccc3cccc1c23`, the result was inactive. As for `COC(=O)CNC(=O)Nc1cc(N2C(=O)ON3C2C(C)(C)N(O)C3(C)C)ccc1C` (configuration not stated), the EC50 is above 200 µM and the IC50 was 170 µM.

For `O=S(OCC1COS(=O)O1)OCC1COS(=O)O1` (configuration not stated), the EC50 is above 776 µM and the IC50 was determined as 77.6 µM. Taken in the same sequence, the figures for `O=S(=O)(NCCSSCCNS(=O)(=O)c1ccc2ccccc2c1)c1ccc2ccccc2c1` were above 200 µM and 64.6 µM. In the same order, the values of `NC1=CN(Cc2ccccc2)C2=N/C(=C\c3ccco3)C(=O)N12` are above 200 µM and 191 µM. In the same order, the values of `COc1ccc([C@H]2[C@H]3COC(=O)[C@H]3C(C#N)=C3Sc4ccccc4N32)cc1` are above 200 µM and 12.9 µM. `Cc1ccc(C)c(COCCOCn2ccc(N)nc2=O)c1`: the EC50 is above 200 µM and the IC50 is above 200 µM. Consider `O=S(=O)(O)c1cc(O)c2c(N=Nc3ccc(Nc4ccccc4)c4c(S(=O)(=O)O)cccc34)cc(S(=O)(=O)O)cc2c1`, for which the EC50 is 112 µM and the IC50 is above 200 µM. Taken in the same sequence, the figures for `COc1cccc(Nc2nc(NS(=O)(=O)c3cc(C)c(Cl)cc3S)n[nH]2)c1` were above 200 µM and 158 µM.

For `CCCCCCCCCCCCCCCC/C(C(=O)OC)=C(/O)C(=O)OCC`, the EC50 is above 8.51 µM and the IC50 is above 8.51 µM. As to `CO[C@@](c1ccccc1)(c1nc(C#N)c(N)o1)C(F)(F)F`, the EC50 is 79.4 µM and the IC50 was 115 µM. Taken in the same sequence, the figures for `O=c1oc2ncccc2n1Cc1ccc([N+](=O)[O-])cc1` were above 200 µM and above 200 µM. In the case of `Cc1ncc([N+](=O)[O-])n1CCNC(=O)Cn1ccnc1[N+](=O)[O-]`, the EC50 was above 200 µM and the IC50 was above 200 µM. `c1ccc(Nc2nn3c(CCCCCCCCc4nnc5sc(Nc6ccccc6)nn45)nnc3s2)cc1`: the EC50 was above 200 µM and the IC50 was found to be 39.8 µM. Taken in the same sequence, the figures for `O=C(O)c1ccc([N+](=O)[O-])cc1S(=O)(=O)O` were above 200 µM and above 200 µM. On to `CC(C)c1cccc2sc(NC(=O)C(=O)C(C#N)c3cccc4ccccc34)nc12` (configuration not stated), for which the result was inactive. Consider `CC1(C)OC2C(=O)C=C(COCc3ccccc3)C2O1` (configuration not stated), for which the EC50 is above 200 µM; the IC50 is 28.2 µM and 10 µM. On to `O=c1[nH]c2cc(F)c(F)cc2nc1Cc1ccccc1`, for which the EC50 is above 200 µM and the IC50 was 132 µM. In the same order, the values of `O=[N+]([O-])c1ccc(C2N3CCCCC3[C@H]3CCCCN23)cc1` (some centres not stated) are above 24 µM and above 24 µM.

With `CC(=O)OCC1OC(OCCCOP(=S)(OCCC#N)OCC2OC(n3ccc(N)nc3=O)C(OC(=O)c3ccccc3)C2OC(=O)c2ccccc2)C(OC(C)=O)C(OC(C)=O)C1OC(C)=O` (configuration not stated), the EC50 was above 100 µM and the IC50 was above 100 µM. On to `CC(C)=CCC[C@@H](C)C1=CC(=O)C(C)=C(O)C1=O`, for which the EC50 was above 2 µM and the IC50 was determined as 1.02 µM. Taken in the same sequence, the figures for `NC(CSCCCS(=O)(=O)O)C(=O)O` (configuration not stated) were above 200 µM and above 200 µM.

For `COCOc1c(C(O[Si](C)(C)C(C)(C)C)c2cnc(Sc3ccccc3)n2C)ccc(OC)c1OC` (configuration not stated), the EC50 is above 200 µM and the IC50 is 4.27 µM.

Regarding `O=c1cn[nH]c2ccc(Br)cc12`, the EC50 was above 95.5 µM and the IC50 was above 95.5 µM. In the case of `O=C(NN1C(=O)C(Cl)C1c1ccc([N+](=O)[O-])cc1)c1ccccc1O` (configuration not stated), the EC50 was above 10.5 µM and the IC50 was above 10.5 µM.

In the case of `CCc1cccc(C(C)(C)C)c1NC(=S)N/C=C(\c1ccccc1)S(=O)Cc1ccccc1` (configuration not stated), the EC50 was 182 µM and the IC50 was above 200 µM.

Regarding `CCc1cc2c(oc3c4ccccc4ccc23)c(=O)[nH]1`, the EC50 is above 200 µM and the IC50 was above 200 µM.

As to `Cc1c(Cl)cccc1NC(=O)CC1Sc2ccccc2NC1=O` (configuration not stated), the EC50 is above 27.5 µM; the IC50 was > 27.5 µM and 15.5 µM. Take `COC(=O)Oc1nn(C(=O)OC)c(=O)c2ccccc12` (tested in a mixture with another compound): the EC50 was above 200 µM and the IC50 was above 200 µM. For the compound `Cc1cccc2c1Oc1ncccc1C2NC(=O)CN(C)C` (configuration not stated), the EC50 was above 200 µM and the IC50 is above 200 µM. Regarding `Cc1[nH]c2ccccc2c1C1Cc2ccccc2N1C(=O)/C=C\C(=O)O` (configuration not stated), the EC50 was above 724 µM and the IC50 stood at 41.7 µM.

For `CC(=O)NC(CC(C)C)C(=O)NC(CC(=O)O)C(=O)NC(CCCCN)C(=O)NC(C)C(=O)NC(CO)C(=O)NC(Cc1ccc(O)cc1)C(=O)NC(CO)C(=O)NC(C(=O)NC(CC(N)=O)C(=O)NC(Cc1cnc[nH]1)C(=O)NC(CC(C)C)C(N)=O)C(C)O` (configuration not stated) (Ac-LDKASYSTNHL-NH2; configuration not given here), the EC50 is above 47.9 µM and the IC50 was above 47.9 µM. On to `N#Cc1c(N=Cc2ccccc2)c(C(=O)Nc2ccccc2)n2c1CCCC2`, for which the EC50 was above 200 µM and the IC50 was above 200 µM. With `CC(C)OC(=O)c1cc(NC(=O)C(C)(C)C)c(F)cc1Cl`, the outcome was inactive.

Turning to `CCN(CC)CCc1nc(-c2ccccc2)no1`, the EC50 is above 200 µM and the IC50 amounted to 27.5 µM. On to `N#Cc1c(N)[nH]c2ccc(Sc3ccccc3)cc12`, for which the EC50 was above 70.8 µM and the IC50 was determined as 0.0832 µM.

For `NC(=O)c1ccc([Se][Se]c2ccc(C(N)=O)cc2)cc1`, the EC50 is above 13.2 µM and the IC50 is 6.92 µM. Taken in the same sequence, the figures for `NNC(=O)c1ccncc1` were above 200 µM and above 200 µM. For the compound `Cc1ccc(OCC2OC(n3cnc4c(N(C)C)nc(Br)nc43)CC2Oc2ccc(C)cc2)cc1` (configuration not stated), the EC50 was above 200 µM and the IC50 amounted to 31.6 µM.

As for `Fc1cccc(Cl)c1C1SCc2nc3cc4ccccc4cc3n21` (configuration not stated), the EC50 is above 200 µM and the concentration for half-maximal inhibition (IC50) came out at 158 µM. On to `O=C(Cn1c2ccc(Br)cc2c2nc3ccccc3nc21)NC1CCCCC1`, for which the EC50 is above 100 µM and the IC50 was above 100 µM. Turning to `C=CCc1cc(OC)c2c(c1)C(O)CC(c1ccccc1)O2` (configuration not stated), the EC50 is above 170 µM and the IC50 is above 170 µM.

With `O=C(O)c1ccc(C2=Cc3cc(Cl)ccc3OC2)cc1`, the EC50 is above 66.1 µM and the IC50 is above 66.1 µM. Turning to `CSC1OC(C)(C)OC1=O` (configuration not stated), the EC50 was above 200 µM and the IC50 was above 200 µM.

Turning to `O=c1cc(-c2ccccc2)oc2cc(OCC(O)COc3ccc4c(=O)cc(-c5ccccc5)oc4c3)ccc12`, the EC50 was above 25.7 µM and the IC50 was above 25.7 µM.

For the compound `Cc1cc(NS(=O)(=O)c2ccc(Nc3c4ccccc4nc4ccc(C(=O)Nc5ccc(S(N)(=O)=O)cc5)cc34)cc2)no1`, the EC50 is above 200 µM and the IC50 worked out at 110 µM. Taken in the same sequence, the figures for `Cc1ccc(NC(=O)CC/C(CC(=O)C(C)(C)C)=N/NC(=O)c2cc3ccccc3cc2O)cc1C` were above 20.4 µM and above 20.4 µM.
